From ChEMBL document CHEMBL5226384, “Total Syntheses, Absolute Configurations, and Cytotoxicity Evaluation of Ugonstilbenes A, B, and C from the Rhizomes of Helminthostachys zeylanica” (J Nat Prod, 2023) come the findings set out here.

As usually defined, the IC50 is the concentration needed to halve the response being measured.

The test system of one series is CCRF-CEM. The series is described as follows: Cytotoxicity against human CCRF-CEM cells assessed as reduction in cell viability incubated for 6 hrs by SRB assay. In kind it is functional, cell-based. A general note: The SRB assay estimates cell density from bound dye.
Another series concerns HT-29. Briefly: Cytotoxicity against human HT-29 cells assessed as reduction in cell viability incubated for 6 hrs by SRB assay. The class given is functional, cell-based. As to conditions: HT-29, 6 h.
For a further series, the system named is MCF7. Briefly: Cytotoxicity against human MCF7 cells assessed as reduction in cell viability incubated for 6 hrs by SRB assay. The class given is functional, cell-based. Particulars: MCF7, 6 h.
The nature of series [1]: Cytotoxicity against fibroblast (unknown origin) cells assessed as reduction in cell viability incubated for 6 hrs by SRB assay. In kind it is toxicity, cell-based.
The subject of a further series is NCI-H460. Briefly: Cytotoxicity against human NCI-H460 cells assessed as reduction in cell viability incubated for 6 hrs by SRB assay. The class given is functional, cell-based. Particulars: NCI-H460, 6 h.

On to `CC1=CCCC(C)(C)[C@@H]1Cc1cc(/C=C/c2cc(O)cc(O)c2)ccc1O`, for which the IC50 with CCRF-CEM was 3 µM; with HT-29, 5.2 µM; with MCF7, 4.1 µM; with NCI-H460, 5.5 µM. In series [1], the IC50 at 6 h came out at 7.1 µM.
The matching figures for `CC1=CCCC(C)(C)[C@H]1Cc1cc(/C=C/c2cc(O)cc(O)c2)ccc1O`: 2.8 µM, 5 µM, 4.4 µM, 6 µM and 7.4 µM.
The matching figures for `CC1(C)CCC[C@]2(C)Oc3cc(/C=C/c4ccc(O)cc4)cc(O)c3C[C@H]12`: 1.7 µM, 3.6 µM, 1.9 µM, 1.4 µM and 6.6 µM.
For the molecule `CC1(C)CCC[C@]2(C)Oc3ccc(/C=C/c4cc(O)cc(O)c4)cc3C[C@H]12`, the IC50 in the series with CCRF-CEM is 1.4 µM; in the series on HT-29, 3.3 µM; in the series on MCF7, 1.7 µM; in the series on NCI-H460 it was 2.2 µM. In addition, the IC50 at 6 h in series [1] came to 8 µM.
For the molecule `CC1=CCCC(C)(C)[C@H]1Cc1c(O)cc(/C=C/c2ccc(O)cc2)cc1O`, the IC50 was found to be 0.82 µM in the series on CCRF-CEM, 2.5 µM in the series with HT-29, 1.7 µM with MCF7 and 1.7 µM in the series with NCI-H460. The IC50 at 6 h in series [1] is 6.6 µM.
Regarding `CC1(C)CCC[C@@]2(C)Oc3cc(/C=C/c4ccc(O)cc4)cc(O)c3C[C@@H]12`, the IC50 in the series on CCRF-CEM was found to be 1.1 µM; in the series with HT-29 it was 2.2 µM; in the series on MCF7, 1.4 µM; in the series on NCI-H460, 1.7 µM. Besides, the IC50 at 6 h in series [1] came to 7.1 µM.
The matching figures for `CC1=CCCC(C)(C)[C@@H]1Cc1c(O)cc(/C=C/c2ccc(O)cc2)cc1O`: 0.27 µM, 4.4 µM, 8 µM, 1.7 µM and 6.6 µM.
With `CC1(C)CCC[C@@]2(C)Oc3ccc(/C=C/c4cc(O)cc(O)c4)cc3C[C@@H]12`, the IC50 in the series on CCRF-CEM is 1.4 µM; in the series on HT-29 it was 2.8 µM; in the series on MCF7 it was 2.8 µM; in the series on NCI-H460 it was 2.5 µM. Besides, the IC50 at 6 h in series [1] came to 6.9 µM.
As to `COc1cccc2c1C(=O)c1c(O)c3c(c(O)c1C2=O)C[C@@](O)(C(=O)CO)C[C@@H]3O[C@H]1C[C@H](N)[C@H](O)[C@H](C)O1` [DOXORUBICIN], the IC50 was found to be 0.09 µM in the series on CCRF-CEM, 0.12 µM in the series with HT-29, 0.27 µM in the series with MCF7 and 0.01 µM in the series with NCI-H460. Also, the IC50 at 6 h in series [1] is 67 µM.
For `Oc1ccc(/C=C/c2cc(O)cc(O)c2)cc1` [RESVERATROL], the 50% inhibitory concentration (IC50) with CCRF-CEM worked out at 0.9 µM; in the series with HT-29 it was 120 µM; in the series with MCF7, 135 µM; in the series on NCI-H460, 58 µM. The IC50 at 6 h in series [1] came out at 218 µM.
